Marks after values point to notes of the source that are not given here.
Legend:
rheumatoid factor = experiment: Rheumatoid factor inflammatory biomarker, clinical study; type: in vivo, human; details: 12 weeks
Text: These structural changes are accompanied by a reduction in the acute phase reactant, C-reactive protein (CRP) and other inflammatory markers such as rheumatoid factor (Table 4). Table 3. Effect of MCIM compounds on damage indicators. * indicates statistical significance, p<0.05. a p = 0.1

C-reactive protein (CRP) = experiment: C-reactive protein inflammatory biomarker, clinical study; type: in vivo, human; details: 12 weeks

## C[C@]1(O)CC[C@H](NS(=O)(=O)c2ccc(-c3ccc(Cl)cc3C#N)cc2)CC1 [HMC-C-01-A]
Rheumatoid factor; 5 mg once daily
  Rheumatoid factor, mean, Change from baseline: 6.8 (80.9)
Rheumatoid factor; 20 mg once daily
  Rheumatoid factor, mean, Change from baseline: -5.0 (60.4)
Rheumatoid factor; 40 mg once daily
  Rheumatoid factor, mean, Change from baseline: -11.3 (88.0)
C-reactive protein (CRP); 5 mg once daily
  CRP- mean, Change from baseline: 0.88 (18.4)
  CRP- median, Change from baseline: -0.20
C-reactive protein (CRP); 20 mg once daily
  CRP- mean, Change from baseline: -4.13 (20.6)
  CRP- median, Change from baseline: -0.10
C-reactive protein (CRP); 40 mg once daily, p<0.05
  CRP- mean, Change from baseline: -5.73 (27.7) *
  CRP- median, Change from baseline: -2.50 *
